Data from patent US20160120805A1, “EXOSOMES FOR OROFACIAL DIAGNOSTICS AND THERAPEUTICS” (THE TRUSTEES OF COLUMBIA UNIVERSITY IN THE CITY OF NEW YORK, priority 2013, published 2016).

Key:
[1] = test system: reconstituted dental epithelium and mesenchyme tissues; experiment: Organ culture of reconstituted E16.5 dental epithelium and mesenchyme tissue, dentin formation; format: cell-based; settings: 10 uM, control formed dentin at day 10
Protocol: E16.5 epithelium and mesenchyme tissue (see e.g., FIG. 9A) were reconstituted (see e.g., FIG. 9B) under dissection microscope. The reconstituted organ were cultured for 12 days (see e.g., FIG. 9C-D).

exosome secretion = experiment: Exosome secretion measured by protein concentration; format: cell-based

`O=C(/C=C/c1ccc(/C=C/C(=O)Nc2ccc(C3=NCCN3)cc2)cc1)Nc1ccc(C2=NCCN2)cc1` [GW4869] was tested, and the dentin formation [1] was “No dentin formed”, the exosome secretion (exosome secretion; 1.0 uM) was “decreased” and the exosome secretion (exosome secretion; 10.0 uM) was “decreased”.
